pIC50: −log10 of the molar value. Where two headings read alike, the source gives them in different places.
What was measured:
in vitro [1] = conditions: dog
MDCK cells = conditions: for HNTC (μM) MDCK Cells: high-nontoxic concentration; for CC50: read-out: CC50 (μM) MDCK Cells, 50% cytotoxic concentration, confluent MDCK monolayers, 72 h
[2] = tested on: influenza virus A/H3N2, strain Hong Kong 68; assay: Antiviral activity against influenza virus A/H3N2, strain Hong Kong 68 (crystal violet uptake assay in MDCK cells); type: cell-based; conditions: for IC50: read-out: IC50 (μM) Against A/Hong Kong/68; for pIC50: Table 4, against A/Hong Kong/68, QSAR numbering, read-out: IC50; for Active: experimental class, active if IC50 < 30 μM
Method: The synthesized compounds were tested for antiviral activity against the influenza virus A/H3N2, strain Hong Kong 68.
In order to identify new potential antiviral drugs, small amounts of extracts or compounds have to be examined for cytotoxicity and antiviral activity in primary screening using a rapid, easy, inexpensive and highly standardized test system. The cytotoxic and the antiviral effects were quantified using a crystal violet uptake assay allowing automated handling of large numbers of candidate agents. […] Madin-Darby Kanine Kidney Cells (MDCK) cells were seeded at 2 × 10^4 cells per well in 96-well flat-bottomed microtiter plates (Falcon 3075). The cytotoxicity of the test compounds was determined on 2-day-old confluent MDCK cell monolayers grown in the internal 60 wells (5% CO2, 37 °C). After removal of the growth medium, two-fold dilutions of the compounds in 100 µL test medium were added and incubated at 37 °C in a 5% CO2 atmosphere for 72 h. Cells in six wells without compound treatment served as basic controls. The Dynex Immuno Assay System (DIAS, Guernsey, UK) developed for automated ELISA techniques was applied to wash gently, stain, measure and analyze the viability of the cell monolayers in cytotoxic, as well as antiviral assays. The staining procedure undertaken with crystal violet was based on the principles described by Nain et al. for the determination of the cytotoxic activity of TNF-α [20]. At first, the supernatant was aspirated and the cell monolayers were washed three times with […] physiological sodium chloride solution to remove dead cells. Secondly, the cells were fixed and stained in one step with 50 µL of 0.03% crystal violet (w/v) in 20% methanol for 10 min. […] Then the optical density of individual wells was quantified spectrophotometrically at 540/630 nm and analyzed with the DIAS. Cell viability was evaluated as the percentage of the mean value of optical density, resulting from the six cell controls, which was set 100%. The 50% cytotoxic concentrations (CC50) were calculated from the mean dose–response curves of three assays each with two parallels.
To exclude non-specific antiviral activities of test compounds, their cytotoxic effects have to be determined not only on confluent cell monolayers but also on proliferating cell cultures in the primary antiviral screening. The cytotoxicity and the growth inhibition of compounds were quantified using an automated crystal violet staining procedure and the electronic cell analyzer system CASY 1, respectively, on day 3 after compound application. The 50% cytotoxic and growth inhibition concentrations were calculated from the mean dose–response curve (3.9 through 1000 µg mL^−1; dilution factor 2) of three separate experiments each with two parallels in the indicated cell lines.

in vitro [3] = type: in vitro ADME; conditions: human, plasma
Method: The separation of glycyl-rimantadine (4b) and Ala-rimantadine (4a) (internal standard, IS) was performed on an ultra-high-performance liquid chromatography (UHPLC) system (Bruker Daltonics, Germany), utilizing an RP Kinetex C18 column 100 mm × 2.1 mm, 2.6 μm, with a proguard column 2.1 mm (Phenomenex, USA). The mobile phase was composed of formic acid 0.1% in water (A) and acetonitrile (B). Gradient elution was chosen for the analysis, at a constant flow rate of 0.25 mL min^−1 and the following gradient profile: initial phase (B) concentration of 5% until 0.3 min, then increased to 80% within 1.2 min, kept constant for 1 min at 80% and then reduced to 5% at 2.6 min, until the end of the run at 4 min. The temperature in the autosampler and the column oven was maintained at 15 °C and 40 °C, respectively. The sample injection volume was set to 5 μL.
The EVOQ Elite ER (Bruker Daltonics, Germany) triple quadrupole mass spectrometer was operated in positive ionization electrospray mode (ESI) in multiple reaction monitoring (MRM) for the detection of glycyl-rimantadine (4b) and IS. The optimal MRM transitions for monitoring the analytes were determined and set as follows: m/z 237.1 → 163.2, 237.1 → 75.5 and 237.1 → 81.4 for glycyl-rimantadine and 251.1 → 163.2, 251.1 → 89.4 and 251.1 → 180.2 for the IS. The optimum ESI parameters were determined and set as follows: spray voltage at 4500 V; heated probe gas flow at 50 units; heated probe temperature at 150 °C; cone gas flow at 20 units; cone temperature at 300 °C and nebulizer gas flow at 50 units. The control of the LC and the MS, as well as the data acquisition, was performed using the MSWS software, version 8.2.1 (Bruker Datonics, Germany). […]
The in vitro plasma stability of glycyl-rimantadine (4b) was conducted by LC–MS/MS. […] The glycyl-rimantadine (4b) concentration was calculated via the standard calibration curve that was designed by plotting the area of the conjugate versus the IS area against the nominal concentration of the calibration standards. […]

[4] = set-up: method as in doi:10.1177/095632029200300305, PMID 9706043, PMID 19116869; conditions: orally introduced; cited from earlier work

Row | Structure (SMILES) | CC50 (in vitro [1]) [µM] | HNTC (μM) MDCK Cells (MDCK cells) [µM] | IC50 ([2]; Influenza A virus, H3N2, MDCK) [µM] | Active [2] | other results
1 | CC(NC(=O)CCN)C12CC3CC(CC(C3)C1)C2 (stereo not drawn) [Compound 4i, β-Ala-Rimantadine] | > 100 | 20.78 | 15.7 |  | 
2 | CC(NC(=O)C(N)Cc1ccccc1)C12CC3CC(CC(C3)C1)C2 (centres unmarked) [Compound 4e, Phe-Rim] | 21.9 | 4.75 |  |  | 
3 | CC(NC(=O)CN)C12CC3CC(CC(C3)C1)C2 (centres unmarked) [Compound 4b, glycyl-rimantadine] | > 100 | 13.89 | 0.11 |  | remaining at 6 h, 1.58 µg/mL (in vitro [3]): 97.5%; remaining at 12 h, 1.58 µg/mL (in vitro [3]): ~91%; remaining at 24 h, 1.58 µg/mL (in vitro [3]): 83.7%
4 | CC(NC(=O)[C@H](C)NC(=N)N)C12CC3CC(CC(C3)C1)C2 (stereo partly drawn) [Compound 6a, Gua-Ala-Rim] |  | >100 |  |  | CC50 (MDCK cells): > 100 µM; IC50 ([2]; influenza A/H3N2 Hong Kong/68): 41.9 µM
5 | CC(C)CC(N)C(=O)NC(C)C12CC3CC(CC(C3)C1)C2 (centres unmarked) [Compound 4d, Leu-Rim] | > 100 | 11.66 | 0.75 |  | 
6 | CCC(C)C(N)C(=O)NC(C)C12CC3CC(CC(C3)C1)C2 (centres unmarked) [Compound 4c, Ile-Rim] | 58.4 | 5.33 |  |  | 
7 | CC(NC(=O)C(N)Cc1ccc(F)cc1)C12CC3CC(CC(C3)C1)C2 (centres unmarked) [Compound 4g, (4-F)-Phe-Rim] | 15.5 | 4.37 |  |  | 
8 | NC(Cc1ccc(F)cc1)C(=O)NC12CC3CC(CC(C3)C1)C2 (centres unmarked) [Compound 5g, (4-F)-phenylalanyl-amantadine] | 83.6 | 15.35 | 0.81 | Yes (Active compound only if IC50 < 30 μM) | pIC50 ([2]; MDCK): 6.09
9 | CC(NC(=O)[C@H](N)Cc1ccc(F)cc1)C12CC3CC(CC(C3)C1)C2 (stereo partly drawn) [Compound 4f, (4-F)-D-Phe-Rim] | 19.9 | 6.23 |  |  | 
10 | CC(C)C(N)C(=O)NC(C)C12CC3CC(CC(C3)C1)C2 (centres unmarked) [Compound 4h, Val-Rim] | 70.3 | 10.2 |  |  | 
11 | CC(NC(=O)[C@H](Cc1ccc(O)cc1)NC(=N)N)C12CC3CC(CC(C3)C1)C2 (stereo partly drawn) [Compound 6j, Gua-Tyr-Rim] |  | 36.69 |  |  | CC50 (MDCK cells): > 100 µM; IC50 ([2]; influenza A/H3N2 Hong Kong/68): 8.19 µM
12 | CC(NC(=O)C(N)Cc1ccc(O)cc1)C12CC3CC(CC(C3)C1)C2 (centres unmarked) [Compound 4j, Tyr-Rimantadine] | > 100 | 9.97 | 0.52 |  | 
13 | C[C@H](NC(=N)N)C(=O)NC12CC3CC(CC(C3)C1)C2 [Compound 7a, Gua-Ala-Am] |  | >100 |  | Yes (Active compound only if IC50 < 30 μM) | CC50 (MDCK cells): > 100 µM; pIC50 [2]: 4.74; IC50 ([2]; influenza A/H3N2 Hong Kong/68): 18.4 µM
14 | CC(C)[C@H](N)C(=O)OCCOCn1cnc2c(=O)[nH]c(N)nc21 [Valacyclovir] |  |  |  |  | bioavailability, times higher than acyclovir [4]: 3–4 times
15 | NC12CC3CC(CC(C3)C1)C2 [Amantadine, reference compound] | > 100 |  | 0.39 | Yes (Active compound only if IC50 < 30 μM) | pIC50 ([2]; MDCK): 6.41
16 | CC(C)[C@H](NC(=N)N)C(=O)NC12CC3CC(CC(C3)C1)C2 [Compound 7h, Gua-Val-Am] |  | >100 |  | Yes (Active compound only if IC50 < 30 μM) | CC50 (MDCK cells): > 100 µM; pIC50 [2]: 4.77; IC50 ([2]; influenza A/H3N2 Hong Kong/68): 17.1 µM
17 | CCOC(=O)C1=C[C@@H](OC(CC)CC)[C@H](NC(C)=O)[C@@H](N)C1 [Oseltamivir, reference compound] | > 100 | >100 | 0.002 |  | 
18 | CC(N)C(=O)NC(C)C12CC3CC(CC(C3)C1)C2 (centres unmarked) [Compound 4a, Ala-Rimantadine] | > 100 | 14.65 | 1.53 |  | 
19 | CC(N)C(=O)NC12CC3CC(CC(C3)C1)C2 (centres unmarked) [Compound 5a, Ala-Amantadine] | > 100 | >100 | 1.41 | Yes (Active compound only if IC50 < 30 μM) | pIC50 ([2]; MDCK): 5.85
20 | NC(Cc1ccccc1)C(=O)NC12CC3CC(CC(C3)C1)C2 (centres unmarked) [Compound 5e, phenylalanyl-amantadine] | 89.4 | 15.1 | 0.75 | Yes (Active compound only if IC50 < 30 μM) | pIC50 ([2]; MDCK): 6.12
21 | CC(NC(=O)CCNC(=N)N)C12CC3CC(CC(C3)C1)C2 (stereo not drawn) [Compound 6i, Gua-β-Ala-Rim] |  | >100 |  |  | CC50 (MDCK cells): > 100 µM
22 | CC(C)C(N)C(=O)NC12CC3CC(CC(C3)C1)C2 (centres unmarked) [Compound 5h, Val-Amantadine] | > 100 | >100 | 1.32 | Yes (Active compound only if IC50 < 30 μM) | pIC50 ([2]; MDCK): 5.88

From paper PMC7504818, “Synthetic Analogues of Aminoadamantane as Influenza Viral Inhibitors—In Vitro, In Silico and QSAR Studies” (Molecules, 2020)
